Read-outs that look alike come from different tables or passages of the source.
Columns and labels:
[1] = rat microsomal stability (RLM); details: microsomal stability half-life
[2] = target: recombinant human GALK1 (Homo sapiens, UniProt P51570); test: hGALK1 biochemical activity assay (Kinase-Glo Plus, ATP depletion)
Procedure, shortened: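 Turnover is measured as ATP depletion by Kinase-Glo Plus luminescence after a 1 h room-temperature reaction. Compounds span 11 concentrations, 57.4 μM–0.97 nM, in final 20 mM HEPES pH 8.0 with 5 mM MgCl2. The substrate solution held 35 μM ATP; the added solution held 5 nM human or mouse GALK1 and 100 μM galactose.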

[3] = aqueous kinetic solubility; details: aqueous kinetic solubility
[4] = target: recombinant mouse GALK1 (Mus musculus, UniProt Q9R0N0); test: mGALK1 biochemical activity assay (Kinase-Glo Plus, ATP depletion)
Chain of recombinant mouse GALK1 (Q9R0N0 whole entry): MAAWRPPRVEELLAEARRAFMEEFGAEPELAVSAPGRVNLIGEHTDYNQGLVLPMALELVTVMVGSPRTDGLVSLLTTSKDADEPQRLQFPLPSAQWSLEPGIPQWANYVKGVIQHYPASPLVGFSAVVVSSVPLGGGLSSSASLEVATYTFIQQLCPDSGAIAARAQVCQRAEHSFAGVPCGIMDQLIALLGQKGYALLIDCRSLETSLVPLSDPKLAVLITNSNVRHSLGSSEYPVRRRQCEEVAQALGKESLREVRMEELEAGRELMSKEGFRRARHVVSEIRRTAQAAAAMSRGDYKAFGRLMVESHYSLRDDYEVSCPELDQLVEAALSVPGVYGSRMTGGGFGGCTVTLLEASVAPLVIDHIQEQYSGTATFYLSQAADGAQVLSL
Procedure, shortened: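 Recombinant GALK1 (5 nM) with 100 μM galactose; GALK1 turnover read as ATP depletion by Kinase-Glo Plus luminescence. Reaction ran 1 h at room temperature before detection reagent was added.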

[5] = PAMPA permeability; details: PAMPA
[6] = Tables 2-15, 35 μM ATP, 100 μM galactose, 1 h, bracketed figure after some values (e.g. −1.2) is undefined and not reported, read-out: hGALK IC50
[7] = recombinant human GALK1, Kinase-Glo Plus ATP depletion, read-out: hGALK
[8] = Tables 2-15, 35 μM ATP, 100 μM galactose, 1 h, bracketed figure after some values is undefined and not reported, read-out: mGALK IC50
[9] = recombinant mouse GALK1, Kinase-Glo Plus ATP depletion, read-out: mGALK
[10] = recombinant human GALK1, Kinase-Glo Plus ATP depletion
[11] = recombinant mouse GALK1, Kinase-Glo Plus ATP depletion

Chain of recombinant human GALK1 (P51570 whole entry): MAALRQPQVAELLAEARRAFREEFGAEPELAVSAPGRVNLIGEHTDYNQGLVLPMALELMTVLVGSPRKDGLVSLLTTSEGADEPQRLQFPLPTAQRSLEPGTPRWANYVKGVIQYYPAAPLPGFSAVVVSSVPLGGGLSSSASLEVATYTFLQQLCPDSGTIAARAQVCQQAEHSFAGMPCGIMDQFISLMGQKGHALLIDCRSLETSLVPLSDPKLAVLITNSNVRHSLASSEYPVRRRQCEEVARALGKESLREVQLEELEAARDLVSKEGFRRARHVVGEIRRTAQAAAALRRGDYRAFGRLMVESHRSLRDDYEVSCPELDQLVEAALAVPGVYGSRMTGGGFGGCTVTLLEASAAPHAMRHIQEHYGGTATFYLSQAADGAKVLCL

Metab. Stabil. (m) [1] | IC50 [2, 6] | IC50 [2, 7] | Sol. [3] | IC50 [4, 8] | IC50 [4, 9] | Perm. (1 × 10^−6 cm/sec) [5] | hGALK (μM) [2, 10] | mGALK (μM) [4, 11] | hGALK IC50 ([2]; Tables 2-15, 35 μM ATP, 100 μM galactose, 1 h, bracketed figure after some values (e.g. −1.2) is undefined and not reported) | mGALK IC50 ([4]; Tables 2-15, 35 μM ATP, 100 μM galactose, 1 h, bracketed figure after some values is undefined and not reported) | Structure (SMILES)
>30 m | 9.68 µM | 9.68 µM | <1 µg/mL | 15.3 µM | 15.3 µM | <14.9 1 × 10^−6 cm/sec |  |  |  |  | CC1=C(C(=O)Nc2ccc(Br)cc2)C(c2ccccc2Cl)N=C(Nc2nc3ccccc3o2)N1 (centres unmarked) [Compound 150, 2-(benzo[d]oxazol-2-ylamino)-N-(4-bromophenyl)-4-(2-chlorophenyl)-6-methyl-1,4-dihydropyrimidine-5-carboxamide]
1.176 m |  |  | <1 µg/mL |  |  | 203.1 1 × 10^−6 cm/sec | in- active | in- active |  |  | CC1=C(C(=O)N(C)c2ccccc2)C(c2ccccc2Cl)N=C(Nc2nc3ccccc3o2)N1 (centres unmarked) [Compound 151, 2-(benzo[d]oxazol-2-ylamino)-4-(2-chlorophenyl)-N,6-dimethyl-N-phenyl-1,4-dihydropyrimidine-5-carboxamide]
11.45 m | 7.69 µM | 7.69 µM | <1 µg/mL | 13.7 µM | 13.7 µM | 15.0 1 × 10^−6 cm/sec |  |  |  |  | CC1=C(C(=O)Nc2ccc(N(C)C)cc2)C(c2ccccc2Cl)N=C(Nc2nc3ccccc3o2)N1 (centres unmarked) [Compound 152, 2-(benzo[d]oxazol-2-ylamino)-4-(2-chlorophenyl)-N-(4-(dimethylamino)phenyl)-6-methyl-1,4-dihydropyrimidine-5-carboxamide]
>30 m |  |  | <1 µg/mL |  |  | <9.2 1 × 10^−6 cm/sec | in- active | in- active | inactive | inactive | CC1=C(C(=O)Nc2cccc(Cl)c2)C(c2ccccc2Cl)N=C(Nc2nc3ccccc3o2)N1 (centres unmarked) [Compound 154, 2-(benzo[d]oxazol-2-ylamino)-N-(3-chlorophenyl)-4-(2-chlorophenyl)-6-methyl-1,4-dihydropyrimidine-5-carboxamide]
7.708 m |  | 3.85 µM | <1 µg/mL | 17.2 µM | 17.2 µM | 1038.5 1 × 10^−6 cm/sec |  |  |  |  | CC1=C(C(=O)Nc2ccccc2CO)C(c2ccccc2Cl)N=C(Nc2nc3ccccc3o2)N1 (centres unmarked) [Compound 156, 2-(benzo[d]oxazol-2-ylamino)-4-(2-chlorophenyl)-N-(2-(hydroxymethyl)phenyl)-6-methyl-1,4-dihydropyrimidine-5-carboxamide]
17.94 m | 6.85 µM |  | <1 µg/mL | 17.2 µM | 17.2 µM | 21.1 1 × 10^−6 cm/sec |  |  |  |  | CC1=C(C(=O)Nc2ccccc2O)C(c2ccccc2Cl)N=C(Nc2nc3ccccc3o2)N1 (centres unmarked) [Compound 161, 2-(benzo[d]oxazol-2-ylamino)-N-(2-hydroxyphenyl)-4-(2-chlorophenyl)-6-methyl-1,4-dihydropyrimidine-5-carboxamide]
>30 m | 3.43 µM | 3.43 µM | <1 µg/mL | 3.43 µM | 3.43 µM | <7.3 1 × 10^−6 cm/sec |  |  |  |  | CC1=C(C(=O)Nc2ccc([N+](=O)[O-])cc2)C(c2ccccc2Cl)N=C(Nc2nc3ccccc3o2)N1 (centres unmarked) [Compound 163, 2-(benzo[d]oxazol-2-ylamino)-4-(2-chlorophenyl)-6-methyl-N-(4-nitrophenyl)-1,4-dihydropyrimidine-5-carboxamide]
>30 m |  | 4.85 µM | 24.6 µg/mL |  | 9.68 µM | <1 1 × 10^−6 cm/sec |  |  |  |  | CC1=C(C(=O)Nc2ccc(C(=O)O)nc2)C(c2ccccc2Cl)N=C(Nc2nc3ccccc3o2)N1 (centres unmarked) [Compound 164, 5-(2-(benzo[d]oxazol-2-ylamino)-4-(2-chlorophenyl)-6-methyl-1,4-dihydropyrimidine-5-carboxamido)picolinic acid]

Reference: US20230158025A1 (UNIVERSITY OF UTAH RESEARCH FOUNDATION, priority 2020, published 2023)
